Assay results published in US20070105931A1, “Methods and compositions for inhibiting the proliferation of prostate cancer cells” (Mayo Foundation for Medical Education and Research, priority 2003, published 2007).

Legend:
STAT3 [1] = assay: Western blot of STAT3 and phosphorylated STAT3 in IL6-treated LNCaP cells; type: cell-based, human
Method: Experiments were then performed to determine if STAT3 is phosphorylated following exposure to IL6.
The same cells were treated with 50 μM of a potent phosphatase inhibitor, peroxovanadate (POV), to determine if the nimesulide-mediated inhibition of phosphorylation of STAT3 by IL6 was due to activation of one or more phosphatases. […] Therefore, the inhibitory effect of nimesulide on phosphorylation of STAT3 by IL6 may be caused by activation of one or more phosphatases, because the inhibitor could partially reverse the reduced phosphorylation of STAT3 by nimesulide. It was noted that POV alone had no effect on phosphorylation of STAT3 in the absence of IL6.

LNCaP cells = assay: Growth response (MTS cell proliferation assay), LNCaP; type: cell-based, human; conditions: MTS assay 6 days after treatment
Method: (§1) Human prostate cancer cell lines LNCaP (American Type Culture Collection, Manassas, Va.) and LAPC-4 (kindly provided by Dr. Charles L. Sawyers; Zhu et al., 1999, Endocrinology, 140:5451-4) were maintained in RPMI 1640 (Mediatech, Hercules, Calif.) containing 5% FBS (Biofluids, Rockville, Md.) at 37° C. and 5% CO2. To avoid potential interference of existing steroids in FBS, the media were first replaced by serum-free RPMI 1640 for 24 h. Cells were then cultured in RPMI 1640 with 5% charcoalstripped FBS supplemented with or without 1 nM Mib (New England Nuclear, Boston, Mass.), a nomnetabolizable, synthetic androgen.
(§2) Cells were plated in 24-well plates at 2×10^4 cells/well. […] MTS assay (Promega, Madison, Wis.) was performed to determine cell proliferation 6 days after the treatment. To measure secreted PSA and hK2 levels, 400 μl of spent medium from cells treated for 6 days were collected. PSA and hK2 proteins levels were determined using specific immunoassays (Mayo Immunochemical Core Facility). These measurements were used to the calculate 50% inhibitory concentration (IC50) of each of the NSAIDs.

LAPC-4 cells = assay: Growth response (MTS cell proliferation assay), LAPC-4; type: cell-based, human; conditions: MTS assay 6 days after treatment
Method: as §1, §2

hK2 [2] = assay: Secreted hK2 protein level (immunoassay), LNCaP; type: cell-based, human; conditions: for IC50: LNCaP cells, secreted hK2 in spent medium, treated 6 days
Method: (§3) FIG. 1 is a graph showing the effects of NSAIDs on the expression of PSA and hK2 proteins in prostate cancer cells ±1 nM Mib. […] PSA and hK2 values were normalized to growth response measured by a 3-(4,5-dimethylthiazol-2-yl)-2,5-diphenyltetrazolium bromide assay and expressed as a percentage of that group treated with Mib only. Error bars indicate the SE of four separate experiments.
as §1, §2

PSA [3] = assay: Secreted PSA protein level (immunoassay), LNCaP; type: cell-based, human; conditions: for IC50: LNCaP cells, secreted PSA in spent medium, treated 6 days
Method: as §3, §1, §2

hK2 [4] = assay: Secreted hK2 protein level (immunoassay), LAPC-4; type: cell-based, human; conditions: LAPC-4 cells, secreted hK2 in spent medium, treated 6 days
Method: as §3, §1, §2

PSA [5] = assay: Secreted PSA protein level (immunoassay), LAPC-4; type: cell-based, human; conditions: LAPC-4 cells, secreted PSA in spent medium, treated 6 days
Method: as §3, §1, §2

AR promoter (−1380/+577) = assay: AR promoter-luciferase reporter assay in LNCaP cells; conditions: 1 nM Mib, 24 h, FIG. 3A
FKBP51 = assay: Western blot of androgen-up-regulated FKBP51 protein; type: cell-based, human; conditions: 1 nM Mib
Method: (§4) Cells were seeded at 1×10^5 cells/plate in 100 mm dishes. […] The cells were collected by centrifugation and washed with nimesulide for 15 or 24 h. The cells were collected by centrifugation and washed with cold PBS. Cell lysates were prepared in radioimmunoprecipitation assay buffer (PBS containing 1% NP40, 0.5% sodium deoxycholate, 0.1% SDS plus freshly added protease inhibitors, 100 μg/ml phenylmethylsulfonyl fluoride, 30 μl/ml aprotinin, and 1 mM sodium orthovanadate) and used for Western blot analysis. The sample filters were immunoblotted with c-Jun, phospho-c-Jun (Cell Signaling, Beverly, Mass.), AR (PharMingen, San Diego, Calif.), and FKBP51 (a gift from Dr. D. O. Toft; Mayo Clinic) specific primary antibodies and horseradish peroxidase-conjugated secondary antibodies and visualized by enhanced chemiluminescence (Amersham Pharmacia, Piscataway, N.J.).

androgen receptor = assay: IL6-activated hK2 ARE-SV40-pGL3 reporter, transient transfection; type: cell-based, human; conditions: celecoxib 50 μM, nimesulide 100 μM; IL6 50 ng/ml; androgen 1 nM
Method: Experiments were performed to determine whether or not IL6 increased expression of PSA and/or hK2.

STAT3 [6] = assay: STAT3 responsive element luciferase reporter in LNCaP cells; conditions: celecoxib 50 μM, nimesulide 100 μM, IL6 25-50 ng/ml, six hours
6-kb PSA promoter = assay: PSA promoter-luciferase reporter assay in LNCaP cells; conditions: concentration as low as 25 μM, 1 nM Mib, 24 h
c-Jun = assay: Western blot of c-Jun protein in LNCaP cells; type: cell-based, human; conditions: 24 h of treatment
Method: as §4

[7] = system: AR/ARE (hK2 3xARE-SV40 minimal promoter); assay: hK2 3xARE luciferase reporter assay in LNCaP cells; conditions: P<0.05, 24 h
AR = assay: Western blot of AR protein expression; type: cell-based, human; conditions: concentrations used in the transfections
Method: as §4

[8] = FIG. 1, dose-dependent, LNCaP and LAPC-4 cells, 1 nM Mib

| Compound | IC50 (LNCaP cells; Homo sapiens, 144 h) | IC50 (hK2 [2]; Homo sapiens, 144 h) | IC50 (PSA [3]; Homo sapiens, 144 h) | IC50 (hK2 [4]; Homo sapiens, 144 h) | IC50 (PSA [5]; Homo sapiens, LAPC4, 144 h) | IC50 (LAPC-4 cells; Homo sapiens, LAPC4, 144 h) | other results |
| --- | --- | --- | --- | --- | --- | --- | --- |
| peroxovanadate [POV] |  |  |  |  |  |  | phosphorylation of STAT3 in the absence of IL6 (STAT3 [1]; 50 μM POV alone): no effect |
| CC(C(=O)O)c1cccc(C(=O)c2ccccc2)c1 (centres unmarked) [Ketoprofen] | > 300 µM | > 300 µM | > 300 µM | > 300 µM | > 300 µM | > 300 µM |  |
| CC1=C(CC(=O)O)c2cc(F)ccc2/C1=C\c1ccc(S(C)(=O)=O)cc1 [Sulindac sulfone] |  |  |  |  |  |  | IC50 (LNCaP cells): > 300 µM; IC50 (LAPC-4 cells): 253 µM; IC50 (hK2 [2]): 97.6 µM; IC50 (PSA [3]): 206 µM; IC50 (hK2 [4]): > 300 µM; IC50 (PSA [5]): 194 µM |
| CC(C)Cc1ccc(C(C)C(=O)O)cc1 (centres unmarked) [Ibuprofen] | > 1000 µM | 860 µM | 783 µM | 803 µM | 870 µM | 740 µM |  |
| CC1=C(CC(=O)O)c2cc(F)ccc2/C1=C\c1ccc([S+](C)[O-])cc1 (centres unmarked) [Sulindac] | > 300 µM | > 300 µM | > 300 µM | > 300 µM | > 300 µM | > 300 µM |  |
| CC(C(=O)O)c1ccc(-c2ccccc2)c(F)c1 (centres unmarked) [Flurbiprofen] | > 300 µM | 281 µM | 206 µM | 221 µM | 234 µM | 347 µM |  |
| CC(=O)Oc1ccccc1C(=O)O [Aspirin] | > 1000 µM | > 1000 µM | > 1000 µM | > 1000 µM | > 1000 µM | > 1000 µM |  |
| Cc1cnc(NC(=O)C2=C(O)c3ccccc3S(=O)(=O)N2C)s1 [Meloxicam] | 193 µM | 377 µM | 300 µM | > 300 µM | > 300 µM | 92 µM |  |

Second part, led by results:

| IC50 (LNCaP cells; Homo sapiens, 144 h) | IC50 (hK2 [2]; Homo sapiens, 144 h) | IC50 (PSA [3]; Homo sapiens, 144 h) | IC50 (hK2 [4]; Homo sapiens, 144 h) | IC50 (PSA [5]; Homo sapiens, LAPC4, 144 h) | Compound | IC50 (LAPC-4 cells; Homo sapiens, LAPC4, 144 h) | other results |
| --- | --- | --- | --- | --- | --- | --- | --- |
| 38.2 µM | 23 µM | 27 µM | 61 µM | 76.5 µM | CS(=O)(=O)Nc1ccc([N+](=O)[O-])cc1Oc1ccccc1 [Nimesulide] | 104 µM | transcription activities of the AR promoter (−1380/+577) (AR promoter (−1380/+577)): repressed; androgen-up-regulated FKBP51 protein expression (FKBP51): alleviated; androgen receptor-mediated expression of the reporter gene activated by IL6 or IL6 plus androgen (androgen receptor): inhibit; STAT3-specific responsive element-mediated luciferase expression activated by IL6 (STAT3 [6]): inhibited; androgen-induced PSA promoter activity (6-kb PSA promoter): significantly reduced; expression of hK2 (hK2 [2]; [8]): suppressed; c-Jun protein (c-Jun): strongly induced; AR/ARE-mediated gene expression (hK2 3xARE reporter) [7]: significantly reduced; expression of PSA (PSA [3]; [8]): suppressed; AR protein expression (AR): reduced; phosphorylation of STAT3 by IL6 (STAT3 [1]; celecoxib 50 μM, nimesulide 100 μM, IL6 25-50 ng/ml): significantly suppressed |
| > 300 µM | 272 µM | 224 µM | 207 µM | 203 µM | COc1ccc2c(c1)c(CC(=O)O)c(C)n2C(=O)c1ccc(Cl)cc1 [Indomethacin] | 170 µM |  |
| > 300 µM | 229 µM | 210 µM |  |  | CC(C(=O)O)c1cccc(Oc2ccccc2)c1 (centres unmarked) [Fenoprofen] |  |  |
|  | 29.6 µM | 20 µM | 43.7 µM | 28.7 µM | Cc1ccc(-c2cc(C(F)(F)F)nn2-c2ccc(S(N)(=O)=O)cc2)cc1 [Celecoxib] | 44.5 µM |  |
